Experimental data reported in patent publication US10080775B2, “Peptide having skin whitening activity, and use thereof” (CAREGEN CO., LTD., priority 2017, dated 2018).
Peptide text beside a SMILES is read from it.

Tested on: melanin-forming cells (B16F10 cell line)
Experiment: Cytotoxicity test (MTT assay)
Assay type: cell-based, mouse
Conditions: B16F10, 1 uM to 200 uM, 72 hours, serum-free medium
Experimental: After melanin-forming cells (B16F10 cell line) dispensed in 48-well culture plates were incubated in a 37° C. incubator for 24 hours, the medium for each plate was removed and replaced with serum-free medium, and then the cells were treated with the peptide of the present invention at different concentrations (1, 10, 50, 100, 150, 200 uM). After the cells were incubated for 72 hours, the MTT reagent was added, followed by reaction for 4 hours. Then, the generated formazan was dissolved in DMSO, and the absorbance was measured at 560 nm.

CCCC(CCC)C(=O)N[C@H](C(=O)N[C@@H](Cc1c[nH]c2ccccc12)C(=O)N[C@@H](CO)C(=O)N[C@@H](CC(C)C)C(=O)N[C@@H](CC(=O)O)C(=O)N[C@H](C(=O)N[C@@H](CCC(N)=O)C(=O)N[C@@H](Cc1ccc(O)cc1)C(=O)NCC(=O)NCC(=O)N[C@@H](CCCNC(=N)N)C(=O)NCC(=O)N[C@@H](CC(=O)O)C(=O)O)[C@@H](C)O)[C@@H](C)CC [Valprooyl-Ile-Trp-Ser-Leu-Asp-Thr-Gln-Tyr-Gly-Gly-Arg-Gly-Asp-COOH] (HELM PEPTIDE1{[CCCC(CCC)C(=O)[*:2]].I.W.S.L.D.T.Q.Y.G.G.R.G.D}$$$$V2.0)
cytotoxicity on melanocytes (MTT assay): no cytotoxicity was observed
